{"source": "paper PMC6719666", "about": "(Acta Crystallographica. Section D, Structural Biology, 2019)", "biological_target": "T1, BcGDHγα (Burkholderia cepacia, UniProt Q8GQE7)", "T1 construct": "gene gdhAlpha; alpha (539 aa, 60 kDa) with C-terminal His tag; gamma 168 aa with signal peptide, mature 121 aa (13 kDa); pTrc99A, E. coli BL21(DE3); no beta-subunit; heterodimer; purified by Ni and cation exchange; with Glucose dehydrogenase gamma subunit (hitchhiker protein, small subunit)", "T1 sequence (Q8GQE7 1-539)": "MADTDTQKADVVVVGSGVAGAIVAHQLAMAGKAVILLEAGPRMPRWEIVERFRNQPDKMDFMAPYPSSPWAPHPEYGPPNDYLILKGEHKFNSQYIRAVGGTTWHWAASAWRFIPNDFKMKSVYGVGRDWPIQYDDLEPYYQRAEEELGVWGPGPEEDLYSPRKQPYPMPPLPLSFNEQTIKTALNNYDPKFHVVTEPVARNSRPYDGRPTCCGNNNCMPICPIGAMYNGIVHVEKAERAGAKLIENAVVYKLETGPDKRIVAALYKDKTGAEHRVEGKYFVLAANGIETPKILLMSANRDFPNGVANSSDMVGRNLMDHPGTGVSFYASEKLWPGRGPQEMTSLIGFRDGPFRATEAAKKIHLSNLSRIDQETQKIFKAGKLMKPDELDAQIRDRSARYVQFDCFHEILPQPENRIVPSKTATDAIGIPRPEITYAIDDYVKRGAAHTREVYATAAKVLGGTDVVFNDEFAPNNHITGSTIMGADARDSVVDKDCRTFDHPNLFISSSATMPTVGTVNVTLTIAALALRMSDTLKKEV", "T1 sequence (A0A0H3KLY3 48-168 partner)": "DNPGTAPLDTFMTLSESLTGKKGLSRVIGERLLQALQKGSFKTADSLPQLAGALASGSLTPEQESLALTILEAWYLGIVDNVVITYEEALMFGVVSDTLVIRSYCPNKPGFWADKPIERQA", "test": "X-ray crystal structure, […] Å", "format": "binding", "settings": "covalent; C8M of FAD to His105 of the alpha-subunit"}
{"smiles": "Cc1cc2nc3c(=O)[nH]c(=O)nc-3n(C[C@H](O)[C@H](O)[C@H](O)COP(=O)(O)OP(=O)(O)OC[C@H]3O[C@@H](n4cnc5c(N)ncnc54)[C@H](O)[C@@H]3O)c2cc1C", "note": "[FAD]", "values": [{"measurement": "X-ray crystal structure, 2.6 Å", "result": "a covalent bond was deemed to form between FAD and His105 in the α-subunit"}]}
